Assays:
[1] = system: COR-L279; experiment: SANGER: Inhibition of human COR-L279 cell growth in a cell viability assay.; format: functional, cell-based; details: Homo sapiens, COR-L279
[2] = system: CP50-MEL-B; experiment: cells; format: functional, cell-based; details: Homo sapiens;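 also: growth inhibition of the human cell line, measured with a cell viability read-out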
Description: SANGER: Inhibition of human CP50-MEL-B cell growth in a cell viability assay.

[3] = system: Ca9-22; experiment: cells; format: functional, cell-based; details: Homo sapiens;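 also: growth inhibition of Ca9-22 cells, read out with a cell viability assay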
Description: SANGER: Inhibition of human Ca9-22 cell growth in a cell viability assay.

[4] = system: DMS-273; experiment: cells; format: functional, cell-based; details: Homo sapiens
Description: SANGER: Inhibition of human DMS-273 cell growth in a cell viability assay.

[5] = system: DOK; experiment: cells; format: functional, cell-based; details: Homo sapiens;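 also: cell viability assay read-out, values reflect inhibition of cell growth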
Description: SANGER: Inhibition of human DOK cell growth in a cell viability assay.

[6] = system: G-361; experiment: cells; format: functional, cell-based; details: Homo sapiens
[7] = system: HCC1395; experiment: cells; format: functional, cell-based; details: Homo sapiens;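 also: growth inhibition of HCC1395 cells, read out by a cell viability assay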
Description: SANGER: Inhibition of human HCC1395 cell growth in a cell viability assay.

[8] = system: HCC1599; experiment: cells; format: functional, cell-based, Homo sapiens; details: Homo sapiens, HCC1599;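 also: growth inhibition of HCC1599 cells, read out in a cell viability assay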
Description: SANGER: Inhibition of human HCC1599 cell growth in a cell viability assay.

[9] = system: HGC-27; experiment: cells; format: functional, cell-based; details: Homo sapiens;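 also: growth inhibition of human HGC-27 cells, read out in a cell viability assay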
Description: SANGER: Inhibition of human HGC-27 cell growth in a cell viability assay.

[10] = system: HSC-2; experiment: cells; format: functional, cell-based; details: Homo sapiens;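 also: growth inhibition of human HSC-2 cells, read out by a cell viability assay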
Description: SANGER: Inhibition of human HSC-2 cell growth in a cell viability assay.

[11] = system: HT-29; experiment: cells; format: functional, cell-based; details: Homo sapiens;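 also: growth inhibition of human HT-29 cells, read out by a cell viability assay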
Description: SANGER: Inhibition of human HT-29 cell growth in a cell viability assay.

[12] = system: Huh-7; experiment: cells; format: functional, cell-based; details: Homo sapiens;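 also: HuH-7 cell growth inhibition, read out with a cell viability assay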
Description: SANGER: Inhibition of human HuH-7 cell growth in a cell viability assay.

[13] = system: IGR-1; experiment: cells; format: functional, cell-based; details: Homo sapiens;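 also: growth inhibition of human IGR-1 cells, read out with a cell viability assay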
Description: SANGER: Inhibition of human IGR-1 cell growth in a cell viability assay.

[14] = system: IMR-5; experiment: cells; format: functional, cell-based, Homo sapiens; details: Homo sapiens, IMR-5; read-out: IC50;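 also: growth inhibition of human IMR-5 cells, read out with a cell viability assay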
Description: SANGER: Inhibition of human IMR-5 cell growth in a cell viability assay.

[15] = system: KOSC-2; experiment: cells; format: functional, cell-based; details: Homo sapiens;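 also: growth inhibition of KOSC-2 cells, read out by a cell viability assay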
Description: SANGER: Inhibition of human KOSC-2 cell growth in a cell viability assay.

[16] = system: LU-165; experiment: cells; format: functional, cell-based, Homo sapiens; details: Homo sapiens, LU-165
Description: SANGER: Inhibition of human LU-165 cell growth in a cell viability assay.

[17] = system: M059J; experiment: cells; format: functional, cell-based; details: Homo sapiens;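 also: growth inhibition of M059J cells, read out with a cell viability assay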
Description: SANGER: Inhibition of human M059J cell growth in a cell viability assay.

[18] = system: MC-IXC; experiment: cells; format: functional, cell-based; details: Homo sapiens;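 also: growth inhibition of MC-IXC cells, read out with a cell viability assay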
Description: SANGER: Inhibition of human MC-IXC cell growth in a cell viability assay.

[19] = system: MDA-MB-157; experiment: cells; format: functional, cell-based; details: Homo sapiens
Description: SANGER: Inhibition of human MDA-MB-157 cell growth in a cell viability assay.

[20] = system: NCCIT; experiment: SANGER: Inhibition of human NCCIT cell growth in a cell viability assay.; format: functional, cell-based; details: Homo sapiens, NCCIT
[21] = system: NCI-H1563; experiment: cells; format: functional, cell-based; details: Homo sapiens;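 also: growth inhibition of human NCI-H1563 cells, read out with a cell viability assay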
Description: SANGER: Inhibition of human NCI-H1563 cell growth in a cell viability assay.

[22] = system: NCI-H1623; experiment: cells; format: functional, cell-based; details: Homo sapiens;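 also: cell viability assay used as the read-out for growth inhibition of NCI-H1623 cells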
Description: SANGER: Inhibition of human NCI-H1623 cell growth in a cell viability assay.

[23] = system: NCI-H2122; experiment: cells; format: functional, cell-based; details: Homo sapiens;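 also: growth inhibition of the cells, read out with a cell viability assay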
Description: SANGER: Inhibition of human NCI-H2122 cell growth in a cell viability assay.

[24] = system: NCI-H2170; experiment: cells; format: functional, cell-based; details: Homo sapiens;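 also: cell viability assay measuring growth inhibition of human NCI-H2170 cancer cells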
Description: SANGER: Inhibition of human NCI-H2170 cell growth in a cell viability assay.

[25] = system: NCI-H2452; experiment: cells; format: functional, cell-based; details: Homo sapiens;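 also: growth inhibition of NCI-H2452 cells, read out with a cell viability assay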
Description: SANGER: Inhibition of human NCI-H2452 cell growth in a cell viability assay.

[26] = system: NCI-H358; experiment: cells; format: functional, cell-based; details: Homo sapiens;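 also: growth inhibition of NCI-H358 human cells, read out with a cell viability assay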
Description: SANGER: Inhibition of human NCI-H358 cell growth in a cell viability assay.

[27] = system: NCI-H596; experiment: cells; format: functional, cell-based; details: Homo sapiens;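 also: growth inhibition of NCI-H596 cells, read out with a cell viability assay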
Description: SANGER: Inhibition of human NCI-H596 cell growth in a cell viability assay.

[28] = system: NCI-H661; experiment: cells; format: functional, cell-based; details: Homo sapiens;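 also: cell viability assay read-out, IC50 being the concentration that inhibits growth of the cells by half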
Description: SANGER: Inhibition of human NCI-H661 cell growth in a cell viability assay.

[29] = system: NCI-H716; experiment: cells; format: functional, cell-based, Homo sapiens; details: Homo sapiens, NCI-H716;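 also: growth inhibition of human NCI-H716 cells, measured by a cell viability assay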
Description: SANGER: Inhibition of human NCI-H716 cell growth in a cell viability assay.

[30] = system: NCI-H748; experiment: cells; format: functional, cell-based, Homo sapiens; details: Homo sapiens, NCI-H748;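 also: growth inhibition of NCI-H748 cells, measured by a cell viability assay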
Description: SANGER: Inhibition of human NCI-H748 cell growth in a cell viability assay.

[31] = system: NUGC-3; experiment: cells; format: functional, cell-based; details: Homo sapiens;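 also: growth inhibition of human NUGC-3 cells, read out with a cell viability assay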
Description: SANGER: Inhibition of human NUGC-3 cell growth in a cell viability assay.

[32] = system: OAW-28; experiment: cells; format: functional, cell-based; details: Homo sapiens;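 also: growth inhibition of OAW-28 cells, read out with a cell viability assay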
Description: SANGER: Inhibition of human OAW-28 cell growth in a cell viability assay.

[33] = system: OE19; experiment: cells; format: functional, cell-based; details: Homo sapiens;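 also: growth inhibition of OE19 cells, measured through a cell viability read-out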
Description: SANGER: Inhibition of human OE19 cell growth in a cell viability assay.

[34] = system: PANC-03-27; experiment: cells; format: functional, cell-based; details: Homo sapiens
Description: SANGER: Inhibition of human PANC-03-27 cell growth in a cell viability assay.

[35] = system: PC-14; experiment: cells; format: functional, cell-based; details: Homo sapiens;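 also: cell viability assay measuring inhibition of PC-14 cell growth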
Description: SANGER: Inhibition of human PC-14 cell growth in a cell viability assay.

[36] = system: PFSK-1; experiment: cells; format: functional, cell-based; details: Homo sapiens;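 also: cell viability assay measuring how strongly compounds suppress growth of human PFSK-1 cells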
Description: SANGER: Inhibition of human PFSK-1 cell growth in a cell viability assay.

[37] = system: RD; experiment: cells; format: functional, cell-based; details: Homo sapiens
Description: SANGER: Inhibition of human RD cell growth in a cell viability assay.

[38] = system: REH; experiment: cells; format: functional, cell-based, Homo sapiens; details: Homo sapiens, REH;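 also: growth inhibition of REH cells determined with a cell viability read-out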
Description: SANGER: Inhibition of human REH cell growth in a cell viability assay.

[39] = system: SCC-25; experiment: cells; format: functional, cell-based; details: Homo sapiens;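 also: growth inhibition of SCC-25 cells, measured with a cell viability assay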
Description: SANGER: Inhibition of human SCC-25 cell growth in a cell viability assay.

[40] = system: SCC-9; experiment: cells; format: functional, cell-based; details: Homo sapiens;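 also: Read-out is a cell viability assay, with values giving inhibition of cell growth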
Description: SANGER: Inhibition of human SCC-9 cell growth in a cell viability assay.

[41] = system: SK-MEL3; experiment: cells; format: functional, cell-based, SK-MEL-3; details: Homo sapiens;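 also: growth inhibition of human SK-MEL-3 cells, read out with a cell viability assay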
Description: SANGER: Inhibition of human SK-MEL-3 cell growth in a cell viability assay.

[42] = system: SK-MEL-30; experiment: cells; format: functional, cell-based; details: Homo sapiens;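 also: growth inhibition of SK-MEL-30 cells, determined with a cell viability assay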
Description: SANGER: Inhibition of human SK-MEL-30 cell growth in a cell viability assay.

[43] = system: SKG-IIIa; experiment: cells; format: functional, cell-based; details: Homo sapiens;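 also: cell growth inhibition, read out with a cell viability assay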
Description: SANGER: Inhibition of human SKG-IIIa cell growth in a cell viability assay.

[44] = system: SW1710; experiment: cells; format: functional, cell-based; details: Homo sapiens;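 also: growth inhibition of SW1710 cells, determined with a cell viability assay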
Description: SANGER: Inhibition of human SW1710 cell growth in a cell viability assay.

[45] = system: SW1990; experiment: cells; format: functional, cell-based; details: Homo sapiens
Description: SANGER: Inhibition of human SW1990 cell growth in a cell viability assay.

[46] = system: 5637; experiment: cells; format: functional, cell-based; details: Homo sapiens
Description: SANGER: Inhibition of human 5637 cell growth in a cell viability assay.

[47] = system: AN3-CA; experiment: cells; format: functional, cell-based; details: Homo sapiens;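 also: growth inhibition of human AN3-CA cells measured by a cell viability assay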
Description: SANGER: Inhibition of human AN3-CA cell growth in a cell viability assay.

[48] = system: AU565; experiment: cells; format: functional, cell-based; details: Homo sapiens;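 also: cell viability assay measuring growth inhibition of human AU565 cells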
Description: SANGER: Inhibition of human AU565 cell growth in a cell viability assay.

[49] = system: BFTC-905; experiment: cells; format: functional, cell-based; details: Homo sapiens
Description: SANGER: Inhibition of human BFTC-905 cell growth in a cell viability assay.

[50] = system: CA46; experiment: cells; format: functional, cell-based, Homo sapiens; details: Homo sapiens, CA46;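 also: growth inhibition of human CA46 cells, read out by a cell viability assay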
Description: SANGER: Inhibition of human CA46 cell growth in a cell viability assay.

[51] = system: CAL-148; experiment: cells; format: functional, cell-based, Homo sapiens; details: Homo sapiens, CAL-148
Description: SANGER: Inhibition of human CAL-148 cell growth in a cell viability assay.

[52] = system: CAL-33; experiment: cells; format: functional, cell-based; details: Homo sapiens;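 also: growth inhibition of CAL-33 cells, read out with a cell viability assay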
Description: SANGER: Inhibition of human CAL-33 cell growth in a cell viability assay.

[53] = system: CAL-62; experiment: cells; format: functional, cell-based; details: Homo sapiens;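 also: growth inhibition of CAL-62 cells, read out with a cell viability assay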
Description: SANGER: Inhibition of human CAL-62 cell growth in a cell viability assay.

[54] = system: THP-1; experiment: cells; format: functional, cell-based, Homo sapiens; details: Homo sapiens, THP-1;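 also: growth inhibition of THP-1 cells, read out via a cell viability assay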
Description: SANGER: Inhibition of human THP-1 cell growth in a cell viability assay.

[55] = system: UACC-893; experiment: cells; format: functional, cell-based; details: Homo sapiens
Description: SANGER: Inhibition of human UACC-893 cell growth in a cell viability assay.

[56] = system: CAPAN-1; experiment: cells; format: functional, cell-based; details: Homo sapiens;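 also: growth suppression of CAPAN-1 cells, read out by a cell viability assay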
Description: SANGER: Inhibition of human CAPAN-1 cell growth in a cell viability assay.

[57] = system: CHP-126; experiment: cells; format: functional, cell-based, Homo sapiens; details: Homo sapiens, CHP-126
Description: SANGER: Inhibition of human CHP-126 cell growth in a cell viability assay.

[58] = system: CMK; experiment: cells; format: functional, cell-based, Homo sapiens; details: Homo sapiens, CMK;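 also: growth inhibition of CMK cells, read out as cell viability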
Description: SANGER: Inhibition of human CMK cell growth in a cell viability assay.

Q: What does the source list for OC[C@H](Cc1ccccc1)Nc1nc(Oc2ccc3c(c2)CCC3)nc2c1ncn2Cc1ccc(-c2ccccc2)cc1?
A: IC50 [1]: > 10200 nM; IC50 [2]: > 10200 nM; IC50 [3]: > 10200 nM; IC50 [4]: > 10200 nM; IC50 [5]: > 10200 nM; IC50 [6]: 2060 nM; IC50 [7]: > 10200 nM; IC50 [8]: > 10200 nM; IC50 [9]: 2310 nM; IC50 [10]: > 10200 nM; IC50 [11]: 8450 nM; IC50 [12]: > 10200 nM; IC50 [13]: > 10200 nM; IC50 [14]: 3100 nM; IC50 [15]: > 10200 nM; IC50 [16]: > 10200 nM; IC50 [17]: > 10200 nM; IC50 [18]: > 10200 nM; IC50 [19]: > 10200 nM; IC50 [20]: > 10200 nM; IC50 [21]: > 10200 nM; IC50 [22]: > 10200 nM; IC50 [23]: 2720 nM; IC50 [24]: > 10200 nM; IC50 [25]: > 10200 nM; IC50 [26]: > 10200 nM; IC50 [27]: > 10200 nM; IC50 [28]: > 10200 nM; IC50 [29]: > 10200 nM; IC50 [30]: > 10200 nM; IC50 [31]: > 10200 nM; IC50 [32]: > 10200 nM; IC50 [33]: > 10200 nM; IC50 [34]: 7890 nM; IC50 [35]: > 10200 nM; IC50 [36]: > 10200 nM; IC50 [37]: > 10200 nM; IC50 [38]: > 10200 nM; IC50 [39]: > 10200 nM; IC50 [40]: > 10200 nM; IC50 [41]: > 10200 nM; IC50 [42]: 8890 nM; IC50 [43]: > 10200 nM; IC50 [44]: 1430 nM; IC50 [45]: > 10200 nM; IC50 [46]: 4180 nM; IC50 [47]: > 10200 nM; IC50 [48]: 6470 nM; IC50 [49]: 5020 nM; IC50 [50]: > 10200 nM; IC50 [51]: > 10200 nM; IC50 [52]: > 10200 nM; IC50 [53]: 9440 nM; IC50 [54]: > 10200 nM; IC50 [55]: > 10200 nM; IC50 [56]: > 10200 nM; IC50 [57]: > 10200 nM; IC50 [58]: > 10200 nM

Q: What does the source list for C/C(=C\c1csc(C)n1)[C@@H]1C[C@@H]2O[C@]2(C)CCC[C@H](C)[C@H](O)[C@@H](C)C(=O)C(C)(C)[C@@H](O)CC(=O)O1 [PATUPILONE]?
A: IC50 [1]: 9.27 nM; IC50 [2]: 19 nM; IC50 [3]: 1.13 nM; IC50 [4]: 1.62 nM; IC50 [5]: > 32 nM; IC50 [6]: 0.701 nM; IC50 [7]: > 32 nM; IC50 [8]: 11.9 nM; IC50 [9]: 0.338 nM; IC50 [10]: 0.363 nM; IC50 [11]: 0.499 nM; IC50 [12]: 7.11 nM; IC50 [13]: 0.863 nM; IC50 [14]: 9.51 nM; IC50 [15]: 2.83 nM; IC50 [16]: > 32 nM; IC50 [17]: 1.34 nM; IC50 [18]: 3.06 nM; IC50 [19]: > 32 nM; IC50 [20]: 1.73 nM; IC50 [21]: > 32 nM; IC50 [22]: 16.9 nM; IC50 [23]: 0.41 nM; IC50 [24]: 5.22 nM; IC50 [25]: > 32 nM; IC50 [26]: 2.48 nM; IC50 [27]: 11.6 nM; IC50 [28]: 30.1 nM; IC50 [29]: > 32 nM; IC50 [30]: > 32 nM; IC50 [31]: 1.16 nM; IC50 [32]: 7.95 nM; IC50 [33]: 4.66 nM; IC50 [34]: 0.132 nM; IC50 [35]: 4.21 nM; IC50 [36]: 13.3 nM; IC50 [37]: 4.42 nM; IC50 [38]: 1.76 nM; IC50 [39]: 1.22 nM; IC50 [40]: > 32 nM; IC50 [41]: 20.9 nM; IC50 [42]: 1.34 nM; IC50 [43]: > 32 nM; IC50 [44]: < 0.125 nM; IC50 [45]: > 32 nM; IC50 [46]: 0.638 nM; IC50 [47]: 0.452 nM; IC50 [48]: 4.1 nM; IC50 [49]: 0.0499 nM; IC50 [50]: 9.61 nM; IC50 [51]: 6.26 nM; IC50 [52]: 1.52 nM; IC50 [53]: 0.875 nM; IC50 [54]: 23.5 nM; IC50 [55]: > 32 nM; IC50 [56]: 4 nM; IC50 [57]: > 32 nM; IC50 [58]: 1.33 nM

Reference: ChEMBL document CHEMBL1201861, “Genomics of Drug Sensitity in Cancer screening data, Wellcome Trust Sanger Institute”
